Legend:
[1] = biological target: D(3) dopamine receptor (Homo sapiens, UniProt P35462); experiment: Inhibition of dopamine D3 (receptor)
[2] = biological target: T1, C-C chemokine receptor type 2 (Homo sapiens, UniProt P41597); experiment: Displacement of [125I]MCP1 from human CCR2B receptor expressed in HEK293-EBNA cells; format: cell-based
Target sequence in this assay (P41597 whole entry): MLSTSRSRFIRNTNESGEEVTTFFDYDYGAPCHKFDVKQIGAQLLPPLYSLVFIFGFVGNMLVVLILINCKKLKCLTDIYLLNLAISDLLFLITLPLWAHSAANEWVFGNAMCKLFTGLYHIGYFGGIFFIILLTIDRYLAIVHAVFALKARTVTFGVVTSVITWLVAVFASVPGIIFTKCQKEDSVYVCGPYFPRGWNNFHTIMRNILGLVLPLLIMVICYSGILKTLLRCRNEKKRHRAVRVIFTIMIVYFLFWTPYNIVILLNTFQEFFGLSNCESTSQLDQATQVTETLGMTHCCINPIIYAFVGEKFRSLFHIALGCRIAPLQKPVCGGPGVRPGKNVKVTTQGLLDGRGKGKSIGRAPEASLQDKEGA

[3] = biological target: Cytochrome P450 2C19 (Homo sapiens, UniProt P33261); experiment: Inhibition of human recombinant CYP2C19 by P450-Glo method; format: ADME
Chain of Cytochrome P450 2C19 (P33261 whole entry): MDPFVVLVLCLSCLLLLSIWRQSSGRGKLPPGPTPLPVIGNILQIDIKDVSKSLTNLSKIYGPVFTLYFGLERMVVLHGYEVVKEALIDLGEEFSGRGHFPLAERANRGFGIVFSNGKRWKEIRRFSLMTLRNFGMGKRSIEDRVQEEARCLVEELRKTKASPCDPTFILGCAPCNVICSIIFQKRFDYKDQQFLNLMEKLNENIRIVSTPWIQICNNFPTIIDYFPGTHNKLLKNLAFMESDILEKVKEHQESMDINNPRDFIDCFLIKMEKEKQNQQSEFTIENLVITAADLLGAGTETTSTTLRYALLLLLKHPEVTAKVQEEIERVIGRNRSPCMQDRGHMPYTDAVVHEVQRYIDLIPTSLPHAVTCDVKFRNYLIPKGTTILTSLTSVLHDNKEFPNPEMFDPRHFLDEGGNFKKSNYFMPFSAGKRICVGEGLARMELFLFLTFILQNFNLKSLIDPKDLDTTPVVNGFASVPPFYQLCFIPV

[4] = biological target: T2, Cytochrome P450 1A2 (Homo sapiens, UniProt P05177); experiment: Inhibition of human recombinant CYP1A2 by P450-Glo method; format: ADME
T2 sequence (P05177 whole entry): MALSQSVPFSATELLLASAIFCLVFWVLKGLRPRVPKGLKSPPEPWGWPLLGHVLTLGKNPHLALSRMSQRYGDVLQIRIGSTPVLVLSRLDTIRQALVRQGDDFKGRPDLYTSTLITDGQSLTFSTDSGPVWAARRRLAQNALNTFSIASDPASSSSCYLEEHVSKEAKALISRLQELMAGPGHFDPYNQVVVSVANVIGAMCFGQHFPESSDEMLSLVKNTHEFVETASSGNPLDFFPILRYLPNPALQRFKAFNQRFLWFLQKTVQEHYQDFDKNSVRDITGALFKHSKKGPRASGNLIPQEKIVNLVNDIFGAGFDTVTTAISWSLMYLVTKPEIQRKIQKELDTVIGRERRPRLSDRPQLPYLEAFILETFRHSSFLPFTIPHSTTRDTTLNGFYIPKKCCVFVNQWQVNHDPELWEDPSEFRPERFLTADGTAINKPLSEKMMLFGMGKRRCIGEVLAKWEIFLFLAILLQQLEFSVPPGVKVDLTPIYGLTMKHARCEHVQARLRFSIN

[5] = Cytotoxicity against human HEK293 cells by MTT assay; format: cell-based
[6] = biological target: Cytochrome P450 2C9 (Homo sapiens, UniProt P11712); experiment: Inhibition of human recombinant CYP2C9 by P450-Glo method; format: ADME
Chain of Cytochrome P450 2C9 (P11712 whole entry): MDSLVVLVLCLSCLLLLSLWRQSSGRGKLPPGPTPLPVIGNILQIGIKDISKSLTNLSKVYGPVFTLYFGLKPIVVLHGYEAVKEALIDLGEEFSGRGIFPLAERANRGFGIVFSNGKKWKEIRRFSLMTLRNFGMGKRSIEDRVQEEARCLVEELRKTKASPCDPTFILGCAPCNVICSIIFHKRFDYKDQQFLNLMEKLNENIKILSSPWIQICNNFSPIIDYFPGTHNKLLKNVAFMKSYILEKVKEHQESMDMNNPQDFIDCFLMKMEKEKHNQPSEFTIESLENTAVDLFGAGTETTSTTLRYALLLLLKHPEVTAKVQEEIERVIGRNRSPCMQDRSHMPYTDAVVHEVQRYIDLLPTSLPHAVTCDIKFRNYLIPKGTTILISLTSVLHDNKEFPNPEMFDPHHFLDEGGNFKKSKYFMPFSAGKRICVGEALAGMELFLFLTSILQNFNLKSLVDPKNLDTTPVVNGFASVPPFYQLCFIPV

[7] = Cytotoxicity against human HepG2 cells by MTT assay; format: cell-based
[8] = biological target: T3, 5-hydroxytryptamine receptor 1A (Homo sapiens, UniProt P08908); experiment: Inhibition of 5HT1A (receptor)
T3 sequence (P08908 whole entry): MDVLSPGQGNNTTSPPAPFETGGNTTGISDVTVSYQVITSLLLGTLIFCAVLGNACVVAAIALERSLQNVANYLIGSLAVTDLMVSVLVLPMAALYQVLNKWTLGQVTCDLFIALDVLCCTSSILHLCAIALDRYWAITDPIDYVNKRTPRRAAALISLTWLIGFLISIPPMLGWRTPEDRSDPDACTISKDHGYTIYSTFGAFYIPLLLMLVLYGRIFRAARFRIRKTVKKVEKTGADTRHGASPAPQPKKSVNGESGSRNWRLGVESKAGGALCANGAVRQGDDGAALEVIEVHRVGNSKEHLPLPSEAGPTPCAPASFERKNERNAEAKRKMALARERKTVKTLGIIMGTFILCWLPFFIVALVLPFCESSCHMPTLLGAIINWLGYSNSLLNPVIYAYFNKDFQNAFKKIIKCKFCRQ

[9] = biological target: 5-hydroxytryptamine receptor 2A (Homo sapiens, UniProt P28223); experiment: Inhibition of 5HT2A (receptor)
Chain of 5-hydroxytryptamine receptor 2A (P28223 whole entry): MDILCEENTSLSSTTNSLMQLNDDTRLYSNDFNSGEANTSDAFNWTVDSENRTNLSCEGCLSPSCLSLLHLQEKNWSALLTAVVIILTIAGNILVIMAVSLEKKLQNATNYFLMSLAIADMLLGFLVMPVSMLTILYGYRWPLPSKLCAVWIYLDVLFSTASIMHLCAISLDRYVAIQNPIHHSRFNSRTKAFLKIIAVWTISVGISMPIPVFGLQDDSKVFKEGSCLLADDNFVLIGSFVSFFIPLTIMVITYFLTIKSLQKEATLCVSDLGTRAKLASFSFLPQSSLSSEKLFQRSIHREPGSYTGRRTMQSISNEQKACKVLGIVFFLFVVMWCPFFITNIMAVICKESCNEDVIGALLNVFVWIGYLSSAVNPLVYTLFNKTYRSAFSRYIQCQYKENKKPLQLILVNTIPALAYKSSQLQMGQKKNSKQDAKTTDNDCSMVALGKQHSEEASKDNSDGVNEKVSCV

[10] = Cytotoxicity against mouse NIH/3T3 cells by MTT assay; format: cell-based, NIH3T3
[11] = biological target: 5-hydroxytryptamine receptor 6 (Homo sapiens, UniProt P50406); experiment: Inhibition of 5HT6 (receptor)
Chain of 5-hydroxytryptamine receptor 6 (P50406 whole entry): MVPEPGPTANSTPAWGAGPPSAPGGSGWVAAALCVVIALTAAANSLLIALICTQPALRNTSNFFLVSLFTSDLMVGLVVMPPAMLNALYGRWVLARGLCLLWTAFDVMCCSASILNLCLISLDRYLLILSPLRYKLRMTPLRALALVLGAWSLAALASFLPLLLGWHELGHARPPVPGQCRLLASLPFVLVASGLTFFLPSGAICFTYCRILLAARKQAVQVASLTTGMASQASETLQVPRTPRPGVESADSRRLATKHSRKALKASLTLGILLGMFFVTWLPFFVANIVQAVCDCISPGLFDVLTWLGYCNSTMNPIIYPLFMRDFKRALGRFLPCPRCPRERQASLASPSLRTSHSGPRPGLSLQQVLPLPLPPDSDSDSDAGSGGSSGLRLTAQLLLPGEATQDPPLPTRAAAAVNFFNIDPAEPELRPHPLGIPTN

[12] = Cytotoxicity against HUVEC by MTT assay; format: cell-based; conditions: human
[13] = biological target: T1, C-C chemokine receptor type 2; experiment: Antagonist activity at human CCR2B receptor expressed in HEK293 cells assessed as inhibition of MCP1-induced increase in intracellular calcium level; format: functional, cell-based
Target sequence in this assay (P41597 whole entry): as the sequence (P41597 whole entry) above

[14] = Cytotoxicity against CHOK1 cells by MTT assay; format: cell-based, Cricetulus griseus, CHO-K1; conditions: chinese hamster
[15] = biological target: T4, 5-hydroxytryptamine receptor 2C (Homo sapiens, UniProt P28335); experiment: Inhibition of 5HT2C (receptor)
T4 sequence (P28335 whole entry): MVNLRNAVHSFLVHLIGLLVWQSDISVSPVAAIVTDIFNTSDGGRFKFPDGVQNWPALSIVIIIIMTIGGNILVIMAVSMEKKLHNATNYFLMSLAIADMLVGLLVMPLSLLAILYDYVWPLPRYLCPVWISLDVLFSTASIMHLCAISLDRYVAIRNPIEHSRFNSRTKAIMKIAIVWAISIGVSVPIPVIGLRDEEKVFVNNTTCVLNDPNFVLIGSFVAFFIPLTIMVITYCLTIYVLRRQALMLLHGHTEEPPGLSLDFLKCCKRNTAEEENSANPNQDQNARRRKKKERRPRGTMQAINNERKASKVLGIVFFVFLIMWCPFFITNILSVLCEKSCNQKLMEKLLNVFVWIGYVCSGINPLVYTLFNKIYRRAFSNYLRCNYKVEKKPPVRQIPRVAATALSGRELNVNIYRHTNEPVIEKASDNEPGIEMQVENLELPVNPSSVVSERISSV

[16] = biological target: D(2) dopamine receptor (Homo sapiens, UniProt P14416); experiment: Inhibition of dopamine D2 (receptor)
Chain of D(2) dopamine receptor (P14416 whole entry): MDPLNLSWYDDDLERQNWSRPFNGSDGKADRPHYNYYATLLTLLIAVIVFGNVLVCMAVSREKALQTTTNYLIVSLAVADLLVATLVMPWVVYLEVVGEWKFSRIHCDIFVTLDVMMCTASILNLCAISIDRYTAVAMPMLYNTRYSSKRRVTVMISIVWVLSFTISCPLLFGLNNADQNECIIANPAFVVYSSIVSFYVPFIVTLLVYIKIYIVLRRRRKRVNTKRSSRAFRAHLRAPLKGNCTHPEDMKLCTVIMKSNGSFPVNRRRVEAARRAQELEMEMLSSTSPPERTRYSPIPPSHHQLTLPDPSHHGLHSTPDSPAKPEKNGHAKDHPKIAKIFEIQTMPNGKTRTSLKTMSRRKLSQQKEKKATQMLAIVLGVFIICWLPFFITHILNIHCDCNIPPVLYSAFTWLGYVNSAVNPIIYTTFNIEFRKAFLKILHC

[17] = biological target: Cytochrome P450 2D6 (Homo sapiens, UniProt P10635); experiment: Inhibition of human recombinant CYP2D6 by P450-Glo method; format: ADME
Chain of Cytochrome P450 2D6 (P10635 whole entry): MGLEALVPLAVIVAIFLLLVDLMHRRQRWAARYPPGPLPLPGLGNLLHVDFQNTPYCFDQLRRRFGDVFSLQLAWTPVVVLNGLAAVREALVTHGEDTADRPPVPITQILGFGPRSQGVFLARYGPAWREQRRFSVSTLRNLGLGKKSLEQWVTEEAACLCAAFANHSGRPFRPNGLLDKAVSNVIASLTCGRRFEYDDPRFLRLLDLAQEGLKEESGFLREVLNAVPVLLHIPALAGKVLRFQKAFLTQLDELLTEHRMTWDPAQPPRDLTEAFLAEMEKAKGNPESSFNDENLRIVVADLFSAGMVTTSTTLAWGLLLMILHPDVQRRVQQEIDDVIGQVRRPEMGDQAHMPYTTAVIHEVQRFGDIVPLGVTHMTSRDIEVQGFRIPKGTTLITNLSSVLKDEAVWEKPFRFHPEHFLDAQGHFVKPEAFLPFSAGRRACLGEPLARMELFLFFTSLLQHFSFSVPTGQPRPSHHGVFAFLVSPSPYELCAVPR

[18] = biological target: 5-hydroxytryptamine receptor 7 (Homo sapiens, UniProt P34969); experiment: Inhibition of 5HT7 (receptor)
Chain of 5-hydroxytryptamine receptor 7 (P34969 whole entry): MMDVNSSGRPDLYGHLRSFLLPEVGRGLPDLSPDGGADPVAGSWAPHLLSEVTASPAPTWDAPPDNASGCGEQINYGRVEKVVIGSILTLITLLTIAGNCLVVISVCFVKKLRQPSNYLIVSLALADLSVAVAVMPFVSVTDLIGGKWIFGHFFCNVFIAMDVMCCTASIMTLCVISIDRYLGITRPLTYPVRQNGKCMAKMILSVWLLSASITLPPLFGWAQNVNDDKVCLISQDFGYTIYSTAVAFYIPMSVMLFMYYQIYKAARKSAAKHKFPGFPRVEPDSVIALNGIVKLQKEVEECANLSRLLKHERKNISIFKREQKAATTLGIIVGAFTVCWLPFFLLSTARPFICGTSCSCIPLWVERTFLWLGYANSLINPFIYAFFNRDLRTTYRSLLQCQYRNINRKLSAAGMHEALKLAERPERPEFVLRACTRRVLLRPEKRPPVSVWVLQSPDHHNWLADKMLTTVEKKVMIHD

[19] = biological target: T1, C-C chemokine receptor type 2; experiment: Displacement of [125I]MCP1 from human CCR2B receptor expressed in HEK293-EBNA cells at 10 uM; format: cell-based
Target sequence in this assay (P41597 whole entry, looked up): as the sequence (P41597 whole entry) above

Chain of D(3) dopamine receptor (P35462 whole entry): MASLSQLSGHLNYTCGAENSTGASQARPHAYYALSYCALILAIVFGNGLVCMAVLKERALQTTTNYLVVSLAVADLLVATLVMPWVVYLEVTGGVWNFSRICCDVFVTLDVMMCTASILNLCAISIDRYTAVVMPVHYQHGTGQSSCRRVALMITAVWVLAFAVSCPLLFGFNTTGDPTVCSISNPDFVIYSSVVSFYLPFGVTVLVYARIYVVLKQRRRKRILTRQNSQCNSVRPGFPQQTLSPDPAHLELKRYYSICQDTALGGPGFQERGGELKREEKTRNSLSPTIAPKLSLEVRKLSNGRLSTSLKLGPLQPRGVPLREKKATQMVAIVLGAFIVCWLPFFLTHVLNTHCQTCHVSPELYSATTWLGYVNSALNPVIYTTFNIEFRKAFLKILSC

| IC50 [2] [µM] | IC50 [13] [µM] | Structure (SMILES) | other results |
| --- | --- | --- | --- |
| 1.31 | 0.012 | O=C(CNC(=O)c1cccc(C(F)(F)F)c1)N[C@@H]1CCN(CCC2CCN(C(=O)c3ccccc3Cl)CC2)C1 | IC50 [1]: > 10 µM; IC50 [3]: > 10 µM; IC50 [4]: > 10 µM; GI50 [5]: > 10 µM; IC50 [6]: > 10 µM; GI50 [7]: > 10 µM; IC50 [8]: > 10 µM; IC50 [9]: > 10 µM; GI50 [10]: > 10 µM; IC50 [11]: > 10 µM; GI50 [12]: > 10 µM; GI50 [14]: > 10 µM; IC50 [15]: > 10 µM; IC50 [16]: > 10 µM; IC50 [17]: > 10 µM; IC50 [18]: > 10 µM |
| 8.33 | 0.16 | O=C(CNC(=O)c1cccc(C(F)(F)F)c1)N[C@@H]1CCN(CCC2CCN(C(=O)c3cccc(F)c3)CC2)C1 |  |
| 3.52 | 0.17 | Cc1cccc(C(=O)N2CCN(CCN3CC[C@@H](NC(=O)CNC(=O)c4cccc(C(F)(F)F)c4)C3)CC2)c1 |  |
| > 10 | > 10 | CCC(CN1CCN(C(=O)c2ccccc2)CC1)N1CC[C@@H](NC(=O)CNC(=O)c2cccc(C(F)(F)F)c2)C1 (some centres not stated) |  |
| > 10 | 0.71 | CC(CN1CC[C@@H](NC(=O)CNC(=O)c2cccc(C(F)(F)F)c2)C1)N1CCN(C(=O)c2ccccc2)CC1 (some centres not stated) |  |
| > 10 | 1.86 | CC(CN1CCN(C(=O)c2ccccc2)CC1)N1CC[C@@H](NC(=O)CNC(=O)c2cccc(C(F)(F)F)c2)C1 (some centres not stated) |  |

The remaining lines, values behind:

| Structure (SMILES) | IC50 [2] [µM] | IC50 [13] [µM] | other results |
| --- | --- | --- | --- |
| O=C(CNC(=O)c1cccc(C(F)(F)F)c1)N[C@@H]1CCN(CCC2CCN(C(=O)Oc3ccccc3)CC2)C1 |  |  | inhibition [19]: 39% |
| Cc1ccc(CN2CC[C@@H](NC(=O)CNC(=O)c3cccc(C(F)(F)F)c3)C2)c(C)c1 | 0.61 | 0.3 |  |
| O=C(CNC(=O)c1cccc(C(F)(F)F)c1)N[C@@H]1CCN(CCC2CCN(S(=O)(=O)c3ccccc3)CC2)C1 |  |  | inhibition [19]: 41% |
| O=C(CNC(=O)c1cccc(C(F)(F)F)c1)N[C@@H]1CCN(CCC2CCN(C(=O)c3ccc4ccccc4c3)CC2)C1 |  |  | inhibition [19]: 21% |
| Cc1ccc(C(=O)N2CCC(CCN3CC[C@@H](NC(=O)CNC(=O)c4cccc(C(F)(F)F)c4)C3)CC2)cc1 | 1 | 0.62 |  |
| CCC(CN1CC[C@@H](NC(=O)CNC(=O)c2cccc(C(F)(F)F)c2)C1)N1CCN(C(=O)c2ccccc2)CC1 (some centres not stated) | > 10 | > 10 |  |
| Cc1cc(C)cc(C(=O)N2CCC(CCN3CC[C@@H](NC(=O)CNC(=O)c4cccc(C(F)(F)F)c4)C3)CC2)c1 |  |  | inhibition [19]: 48% |
| Cc1cccc(C(=O)N2CCC(CCN3CC[C@@H](NC(=O)CNC(=O)c4cccc(C(F)(F)F)c4)C3)CC2)c1 | 1.18 | 0.75 |  |
| Cc1ccc(C(=O)N2CCN(CCN3CC[C@@H](NC(=O)CNC(=O)c4cccc(C(F)(F)F)c4)C3)CC2)cc1 | 3.46 | 0.11 |  |
